# Molecular target: T1, Broad substrate specificity ATP-binding cassette transporter ABCG2 (Homo sapiens, UniProt Q9UNQ0)
# T1 sequence (Q9UNQ0 whole entry): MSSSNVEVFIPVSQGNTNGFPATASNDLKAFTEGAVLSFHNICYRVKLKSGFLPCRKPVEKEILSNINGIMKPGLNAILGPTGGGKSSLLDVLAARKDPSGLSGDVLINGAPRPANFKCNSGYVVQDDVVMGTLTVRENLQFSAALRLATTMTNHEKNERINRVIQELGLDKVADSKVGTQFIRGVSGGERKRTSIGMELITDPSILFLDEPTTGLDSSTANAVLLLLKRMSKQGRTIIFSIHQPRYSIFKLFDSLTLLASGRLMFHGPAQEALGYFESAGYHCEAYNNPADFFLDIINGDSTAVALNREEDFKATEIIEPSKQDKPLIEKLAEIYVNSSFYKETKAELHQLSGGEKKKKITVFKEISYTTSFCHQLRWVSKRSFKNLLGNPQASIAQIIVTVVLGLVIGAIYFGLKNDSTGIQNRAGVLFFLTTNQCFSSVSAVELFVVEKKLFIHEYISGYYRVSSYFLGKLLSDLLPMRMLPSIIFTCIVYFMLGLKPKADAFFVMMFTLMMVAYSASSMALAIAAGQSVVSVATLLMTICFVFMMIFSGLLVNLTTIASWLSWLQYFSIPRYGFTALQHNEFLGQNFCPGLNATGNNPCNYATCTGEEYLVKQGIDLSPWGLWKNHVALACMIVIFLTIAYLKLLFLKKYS
# Assay: TP_TRANSPORTER: inhibition of topotecan uptake in BCRP-expressing K562 cells
# Type: functional, cell-based
row,Activity,SMILES
1,inhibitor [],CC/C(=C(\c1ccc(O)cc1)c1ccc(OCCN(C)C)cc1)c1ccc(OC)cc1
2,inhibitor [],CC/C(=C(\c1ccc(O)cc1)c1ccc(OCCN(C)C)cc1)c1ccc(C(C)C)cc1 [MIPROXIFENE]

# The next lines start with the compound.
row,SMILES,Activity
1,CC/C(=C(/c1ccc(OCCN(C)C)cc1)c1ccc(OCc2ccc([N+](=O)[O-])cc2)cc1)c1ccccc1,inhibitor []
2,CC/C(=C(\c1ccc(O)cc1)c1ccc(OCCNC)cc1)c1ccc(C(C)CO)cc1 (configuration not stated),inhibitor []
3,CC/C(=C(\c1ccc(O)cc1)c1ccc(OCCN(C)C)cc1)c1ccc(OCc2ccccc2)cc1,inhibitor []
4,CC/C(=C(/c1ccc(OCCN(C)C)cc1)c1ccc(OCc2ccccc2)cc1)c1ccccc1,inhibitor []
5,CCC(=O)Oc1ccc(/C(CC)=C(\CC)c2ccc(OC(=O)CC)cc2)cc1 [DIETHYLSTILBESTROL DIPROPIONATE],inhibitor []
6,CC/C(=C(/CC)c1ccc(O)cc1)c1ccc(O)cc1 [DIETHYLSTILBESTROL],inhibitor []
7,C[C@]12CC[C@@H]3c4ccc(O)cc4CC[C@H]3[C@@H]1CCC2=O [ESTRONE],inhibitor []

# Molecular target: T1, Broad substrate specificity ATP-binding cassette transporter ABCG2
# Assay: TP_TRANSPORTER: drug resistance in BCRP-expressing K562 cells
# Type: functional, cell-based
row,Activity,SMILES
1,substrate [],CCc1c2c(nc3ccc(O)cc13)-c1cc3c(c(=O)n1C2)COC(=O)[C@]3(O)CC [7-ETHYL-10-HYDROXYCAMPTOTHECIN]
2,substrate [],CC[C@@]1(O)C(=O)OCc2c1cc1n(c2=O)Cc2cc3c(CN(C)C)c(O)ccc3nc2-1 [TOPOTECAN]

row,SMILES,Activity
1,O=C1c2c(O)ccc(O)c2C(=O)c2c(NCCNCCO)ccc(NCCNCCO)c21 [MITOXANTRONE],substrate []

# From ChEMBL document CHEMBL2074130, “Reversal of breast cancer resistance protein-mediated drug resistance by estrogen antagonists and agonists” (Mol Cancer Ther, 2003)
